Converted amounts (≈) assume the structure as drawn. Non-standard residues stand in square brackets, D forms with d. Residues, ends and D or L forms follow the SMILES beside them. 2Nal = N[C@@H](Cc1ccc2ccccc2c1)C(=O)O
Columns and labels:
[1] = test system: Staphylococcus aureus (NRS 384); test: microbe, parasite or virus in culture; type: cell-based
From the text: According to the Standards of Clinical and Laboratory Standards Institute (CLSI) of the USA for antimicrobial drug susceptibility test operation standards, a micronutrient serial twofold dilution method was used to determine minimum inhibitory concentrations (MICs) of all 60 peptides (S/N: LV-1˜LV-60) against Staphylococcus aureus (NRS 384). The experiment was repeated 5 times in parallel. […] An antibacterial drug Levofloxacin and an AMP Cbf-K16 (sequence of Cbf-K16: […]) were used as positive controls to evaluate the antibacterial effect of the antimicrobial peptides on Staphylococcus aureus (NRS 384).

[2] = test system: Staphylococcus aureus (NRS 384); conditions: 37° C., 3 h
Method: Trypsin (250 U/mg, pH=8.0) and AMPs (LV-1 to LV-30) were mixed in a ratio of 1:10 (w/w) and added to a reaction buffer (0.2 M sodium phosphate, 1 mM CaCl2), pH 7.5), and then incubated at 37° C. for 3 h.

[3] = test system: Methicillin-sensitive Staphylococcus aureus (NRS 384); type: in vivo, ICR mice; conditions: topical formulation 1 mg/mL, 0.1 mL twice a day for 4 days, mouse back skin infection
Method: (§1) Both female and male ICR mice were used in the test, half of the female and male mice were taken and randomly assigned into groups, with 10 mice in each group, and kept in separate cages. The mice were divided into a blank group, a model group, a positive control Methicillin group, and topical formulation groups of AMPs LV-1 to LV-30. Suspensions of Methicillin-sensitive Staphylococcus aureus (NRS 384) and Methicillin-resistant Staphylococcus aureus (MRSA) were prepared, and their concentrations were adjusted to a concentration of 5×10^6 CFU/mL for subsequent use. Hair on backs of the mice was shaved with a shaver, wound was created on back skin of each mouse using a biopsy punch, and the wound was then infected with Methicillin-sensitive Staphylococcus aureus and Methicillin-resistant Staphylococcus aureus (0.1 mL, 5×10^6 CFU/mL) to establish infection models. Except for the blank group and the model group, all other groups received corresponding topical formulations applied directly to the infected areas, with a dose of 0.1 mL, twice a day for 4 consecutive days. On the day following the final administration, skin from the infected sites of each group was aseptically collected, and an antibacterial rate was calculated.

[4] = test system: Methicillin-resistant Staphylococcus aureus (MRSA); type: in vivo, ICR mice; conditions: topical formulation 1 mg/mL, 0.1 mL twice a day for 4 days, mouse back skin infection
Method: as §1

rabbit red blood cells = type: cell-based; conditions: red cells of rabbit, 1 h
Method: Fresh rabbit blood ([…]) was collected and centrifuged at 500 g for 5 min, a supernatant was discarded, and red blood cells were repeatedly washed with phosphate-buffered saline (PBS, 0.01 M, pH 7.4) until the supernatant was clear. The red blood cells (RBCs) were resuspended to 10 mL, and diluted 25-fold with PBS (0.01 M, pH 7.4) to prepare a red blood cell suspension with a concentration of about 2×10^8 RBC/mL. The AMPs were subjected to gradient dilution with normal saline (0.85%, w/v, NaCl) according to a multiple dilution method, final concentrations of the SMPs were 1.95, 3.9, 7.8, 15.6, 31.3, 62.5, 125, 250, 500, 1000, and 2000 μg/mL. 100 μl of polypeptide solution was taken and added to a 96-well plate with 5 replicates for each concentration; 100 μl of rabbit blood with a red blood cell count of about 2×10^8 RBC/mL was then added to each well, the plate was incubated at 37° C. for 1 h, centrifuged at 500 g for 5 min, 100 μl of supernatant was taken and transferred to a new 96-well plate, and an optical density (OD) at a wavelength of 541 nm was measured using a microplate reader. Triton X-100 (10 mg/mL as a starting concentration, two-fold gradient dilution) was used as a positive control group. A hemolysis rate was calculated using the following formula: Hemolysis rate (%)=[(OD541 of experimental group-OD541 of negative control group)/(OD541 of positive control group−OD541 of negative control group)]×100% Specific results of the hemolysis test are shown in Table 6. Minimum hemolytic concentration (MHC): a lowest drug concentration that can cause 10% hemolysis.

Molecule: KFFRKLKKSVKKRAKKFFKKPRVIGVSIPF [Cbf-K16, reference compound]
- MIC against Staphylococcus aureus (NRS 384) ([1]; Staphylococcus aureus (NRS 384)): 32 µg/mL
- Trypsin MIC ([2]; MIC vs Staphylococcus aureus (NRS 384) after trypsin treatment 1:10 (w/w)): >128 µg/mL
- MIC values after trypsin treatment ([2]; trypsin:AMP 1:10 (w/w), Staphylococcus aureus (NRS 384)): lost its antimicrobial activity

Molecule: COc1cccc(OC)c1C(=O)N[C@@H]1C(=O)N2[C@@H]1SC(C)(C)[C@@H]2C(=O)O [Methicillin, reference compound]
- Inhibition rate against Methicillin-sensitive Staphylococcus aureus (%) [3]: 84.83%
- Inhibition rate against Methicillin-resistant Staphylococcus aureus (%) [4]: 1.05%

Molecule: CC(=O)N[C@@H](CCCNC(=N)N)C(=O)N[C@@H](CCCCN)C(=O)N[C@@H](CC(C)C)C(=O)N[C@@H](CC(C)C)C(=O)N[C@@H](Cc1ccc2ccccc2c1)C(=O)N[C@@H](CCCNC(=N)N)C(=O)N[C@@H](CC(C)C)C(=O)N[C@@H](CCCCN)C(=O)N[C@@H](Cc1ccccc1)C(=O)N[C@@H](CCCNC(=N)N)C(=O)N[C@@H](CCCCN)C(N)=O [LV-34] (Ac-RKLL[2Nal]RLKFRK-NH2)
- MIC against Staphylococcus aureus (NRS 384) ([1]; NRS 384): 4 µg/mL (≈ 2.51 µM)
- MHC (minimum hemolytic concentration, lowest concentration causing 10% hemolysis) (rabbit red blood cells): >1000 µg/mL

From patent US20250304620A1, “ANTIMICROBIAL PEPTIDE AND APPLICATION THEREOF” (priority 2023, published 2025)
